Results reported in PubChem BioAssay AID1259407 (Chemical Carcinogenesis Research Information System (CCRIS), 2018).
The source made the active and inactive calls. The rule behind the calls is not given here.

Test system: CCRIS mutagenicity, Ames/micronucleus/aberration tests
Test: CCRIS mutagenicity studies
[1] = Test System: AMES SALMONELLA TYPHIMURIUM, Strain/Indicator: TA98, Metabolic Activation: NONE, Method: PREINCUBATION
[2] = Test System: AMES SALMONELLA TYPHIMURIUM, Strain/Indicator: TA100, Metabolic Activation: NONE, Method: PREINCUBATION

For `CCCCCCCCCCCCO`, the mutagenic call [1] was “inactive; negative”, the mutagenic call (Test System: AMES SALMONELLA TYPHIMURIUM, Strain/Indicator: TA98, Metabolic Activation: RAT, LIVER, S-9, KC 500, Method: PREINCUBATION) was “inactive; negative” and the mutagenic call [2] was “inactive; negative”. For the same molecule, the mutagenic call (Test System: AMES SALMONELLA TYPHIMURIUM, Strain/Indicator: TA100, Metabolic Activation: RAT, LIVER, S-9, KC 500, Method: PREINCUBATION) was “inactive; negative”, the mutagenic call (Test System: AMES SALMONELLA TYPHIMURIUM, Strain/Indicator: TA1535, Metabolic Activation: NONE, Method: PREINCUBATION) was “inactive; negative” and the mutagenic call (Test System: AMES SALMONELLA TYPHIMURIUM, Strain/Indicator: TA1535, Metabolic Activation: RAT, LIVER, S-9, KC 500, Method: PREINCUBATION) was “inactive; negative”. For the same molecule, the mutagenic call (Test System: AMES SALMONELLA TYPHIMURIUM, Strain/Indicator: TA1537, Metabolic Activation: NONE, Method: PREINCUBATION) was “inactive; negative”, the mutagenic call (Test System: AMES SALMONELLA TYPHIMURIUM, Strain/Indicator: TA1537, Metabolic Activation: RAT, LIVER, S-9, KC 500, Method: PREINCUBATION) was “inactive; negative” and the mutagenic call (Test System: AMES SALMONELLA TYPHIMURIUM, Strain/Indicator: TA1538, Metabolic Activation: NONE, Method: PREINCUBATION) was “inactive; negative”. The mutagenic call (Test System: AMES SALMONELLA TYPHIMURIUM, Strain/Indicator: TA1538, Metabolic Activation: RAT, LIVER, S-9, KC 500, Method: PREINCUBATION) was “inactive; negative”, the mutagenic call (Test System: E. COLI, Strain/Indicator: WP2 UVRA, Metabolic Activation: NONE, Method: PREINCUBATION) was “inactive; negative” and the mutagenic call (Test System: E. COLI, Strain/Indicator: WP2 UVRA, Metabolic Activation: RAT, LIVER, S-9, KC 500, Method: PREINCUBATION) was “inactive; negative”.

`ClCBr` was tested, and the mutagenic call (Test System: AMES SALMONELLA TYPHIMURIUM, Strain/Indicator: TA97, Metabolic Activation: NONE, Method: STANDARD PLATE) was “active; positive”, the mutagenic call (Test System: AMES SALMONELLA TYPHIMURIUM, Strain/Indicator: TA97, Metabolic Activation: RAT, LIVER, S-9, AROCLOR 1254, Method: STANDARD PLATE) was “active; positive” and the mutagenic call (Test System: AMES SALMONELLA TYPHIMURIUM, Strain/Indicator: TA98, Metabolic Activation: HAMSTER, LIVER, S-9, AROCLOR 1254 (30%), Method: PREINCUBATION) was “active; positive”. For the same molecule, the mutagenic call [1] was “active; positive”, the mutagenic call (Test System: AMES SALMONELLA TYPHIMURIUM, Strain/Indicator: TA98, Metabolic Activation: NONE, Method: STANDARD PLATE) was “active; positive” and the mutagenic call (Test System: AMES SALMONELLA TYPHIMURIUM, Strain/Indicator: TA98, Metabolic Activation: RAT, LIVER, S-9, AROCLOR 1254 (30%), Method: PREINCUBATION) was “active; positive”. The mutagenic call (Test System: AMES SALMONELLA TYPHIMURIUM, Strain/Indicator: TA98, Metabolic Activation: RAT, LIVER, S-9, AROCLOR 1254, Method: STANDARD PLATE) was “active; positive”, the mutagenic call (Test System: AMES SALMONELLA TYPHIMURIUM, Strain/Indicator: TA100, Metabolic Activation: HAMSTER, LIVER, S-9, AROCLOR 1254 (30%), Method: PREINCUBATION) was “active; positive” and the mutagenic call (Test System: AMES SALMONELLA TYPHIMURIUM, Strain/Indicator: TA100, Metabolic Activation: NONE, Method: DESICCATOR) was “active; positive”. For the same molecule, the mutagenic call [2] was “active; positive”, the mutagenic call (Test System: AMES SALMONELLA TYPHIMURIUM, Strain/Indicator: TA100, Metabolic Activation: NONE, Method: STANDARD PLATE) was “active; positive” and the mutagenic call (Test System: AMES SALMONELLA TYPHIMURIUM, Strain/Indicator: TA100, Metabolic Activation: RAT, LIVER, S-9, AROCLOR 1254 (30%), Method: PREINCUBATION) was “active; positive”. For the same molecule, the mutagenic call (Test System: AMES SALMONELLA TYPHIMURIUM, Strain/Indicator: TA100, Metabolic Activation: RAT, LIVER, S-9, AROCLOR 1254, Method: STANDARD PLATE) was “active; positive”, the mutagenic call (Test System: AMES SALMONELLA TYPHIMURIUM, Strain/Indicator: TA104, Metabolic Activation: NONE, Method: STANDARD PLATE) was “active; positive” and the mutagenic call (Test System: AMES SALMONELLA TYPHIMURIUM, Strain/Indicator: TA104, Metabolic Activation: RAT, LIVER, S-9, AROCLOR 1254, Method: STANDARD PLATE) was “inactive; negative”.

For `O=c1c2[nH]c3ccccc3c2nnn1/N=C/c1ccc(O)cc1`, the mutagenic call (Test System: AMES SALMONELLA TYPHIMURIUM, Strain/Indicator: TA97, Metabolic Activation: NONE, Method: PREINCUBATION) was “active; positive”, the mutagenic call (Test System: AMES SALMONELLA TYPHIMURIUM, Strain/Indicator: TA97, Metabolic Activation: RAT, LIVER, S-9, AROCLOR 1254 (10%), Method: PREINCUBATION) was “active; positive” and the mutagenic call [1] was “active; positive”. The mutagenic call (Test System: AMES SALMONELLA TYPHIMURIUM, Strain/Indicator: TA98, Metabolic Activation: RAT, LIVER, S-9, AROCLOR 1254 (10%), Method: PREINCUBATION) was “active; positive”, the mutagenic call [2] was “active; positive” and the mutagenic call (Test System: AMES SALMONELLA TYPHIMURIUM, Strain/Indicator: TA100, Metabolic Activation: RAT, LIVER, S-9, AROCLOR 1254 (10%), Method: PREINCUBATION) was “active; positive”. For the same molecule, the mutagenic call (Test System: AMES SALMONELLA TYPHIMURIUM, Strain/Indicator: TA102, Metabolic Activation: NONE, Method: PREINCUBATION) was “active; positive” and the mutagenic call (Test System: AMES SALMONELLA TYPHIMURIUM, Strain/Indicator: TA102, Metabolic Activation: RAT, LIVER, S-9, AROCLOR 1254 (10%), Method: PREINCUBATION) was “active; positive”.
